Assays:
[1] = Cleavage of probe by incubation with Na2S2O4, LC-MS analysis; format: physicochemical; conditions: 100 mM Na2S2O4, after 30 minutes
Description: We initially tested the cleavage of SV1 (shown in FIG. 3) by incubation with 100 mM Na2S2O4. After 30 minutes full cleavage of SV1 into the two aniline fragments 3 and 4 (FIG. 3) was observed using LC-MS analysis.

Cathepsin H = biological target: T1, Cathepsin H (Rattus norvegicus, UniProt P00786); test: Proteases targeted by SV1 after chemoselective release from immobilized streptavidin, LC-MS/MS; format: biochemical; conditions: rat liver homogenate, SV1 10 μM 2 h
T1 construct: from tissue; host or cells: rat liver homogenate
Description: (§1) Rat liver homogenate (20 mg of total protein) in reaction buffer was incubated with SV1 (10 μM) for 2 h. Unreacted probe was removed by filtration over a PD10 column (Amersham Bioscience) and the eluate (in PBS buffer) was shaken with immobilized streptavidin slurry (20 μL) for 1 h. The streptavidin beads were subsequently washed with PBS buffer containing 1M NaCl, 0.1% SDS and 10% EtOH (3× each). Proteases labeled by the probe were cleaved off with Na2S2O4 using the above-described procedure. The pooled supernatant was denatured by incubating with 1 volume of 12 M urea. Next, disulfide bonds were reduced with DTT (10 mM, 60 minutes) and free cysteines were capped with iodoacetamide (40 mM, 60 minutes). Unreacted iodoacetamide was neutralized by addition of an equal amount of DTT and the concentration of urea was lowered to 2 M by addition of water. Trypsin digestion was performed overnight at 37° C. (0.1 μg of trypsin). Digestion was stopped by addition of formic acid (5% final concentration) and digested samples were desalted using a C18 Zip-Tip (Millipore) prior to LC/MS-MS analysis. Data was analyzed by the Sequest algorithm (Novatia) and evaluated by Scaffold (Proteome Software Inc.). Peptides with probability value>95% (in Scaffold) were considered positive hits.
(§2) Although the optimized release of probe-labeled proteins from streptavidin using dithionite is slightly lower in efficiency than under denaturing conditions, this method is likely to result in less background signals leading to easier identification of the target proteases. In addition the direct on-bead cleavage method using a mass spectrometry-compatible buffer allows direct in solution digestion of samples followed by MS analysis. To confirm these issues we analyzed the samples in FIG. 2 by direct solution digestion with trypsin followed by LC-MS/MS analysis of all peptide products. This analysis identified multiple peptides from each of the expected cathepsin proteases without any contamination by background proteins (Table 1). […] A more comprehensive and detailed analysis is reported in Fonović et al., Proteomic evaluation of chemically cleavable activity based probes,” Mol. and Cell Proteomics Manuscript M700-124-MCP200 (published online Jul. 5, 2007).

Cathepsin B = biological target: T2, Cathepsin B (Rattus norvegicus, UniProt P00787); test: as above; format: biochemical; conditions: rat liver homogenate, SV1 10 μM 2 h
T2 construct: from tissue; host or cells: rat liver homogenate
Description: as §1, §2

Cathepsin Z = biological target: T3, Cathepsin Z (Rattus norvegicus, UniProt Q9R1T3); test: as above; format: biochemical; conditions: rat liver homogenate, SV1 10 μM 2 h
T3 construct: from tissue; host or cells: rat liver homogenate
Description: as §1, §2

Cathepsin C = biological target: T4, Cathepsin C (Rattus norvegicus, UniProt P80067); test: as above; format: biochemical; conditions: rat liver homogenate, SV1 10 μM 2 h
T4 construct: from tissue; host or cells: rat liver homogenate
Description: as §1, §2

T4 sequence (P80067 25-462): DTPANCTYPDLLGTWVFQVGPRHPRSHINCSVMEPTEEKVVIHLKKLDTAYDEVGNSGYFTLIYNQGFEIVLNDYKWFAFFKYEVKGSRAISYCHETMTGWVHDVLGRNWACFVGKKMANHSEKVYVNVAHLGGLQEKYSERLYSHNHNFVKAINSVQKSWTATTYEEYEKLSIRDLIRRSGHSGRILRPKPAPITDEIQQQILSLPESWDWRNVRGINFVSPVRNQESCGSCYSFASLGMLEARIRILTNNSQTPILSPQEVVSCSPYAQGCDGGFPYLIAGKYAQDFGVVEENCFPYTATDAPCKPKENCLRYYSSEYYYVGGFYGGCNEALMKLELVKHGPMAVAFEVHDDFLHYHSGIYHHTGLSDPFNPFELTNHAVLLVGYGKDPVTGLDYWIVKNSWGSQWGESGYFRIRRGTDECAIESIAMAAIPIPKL
T2 sequence (P00787 80-333): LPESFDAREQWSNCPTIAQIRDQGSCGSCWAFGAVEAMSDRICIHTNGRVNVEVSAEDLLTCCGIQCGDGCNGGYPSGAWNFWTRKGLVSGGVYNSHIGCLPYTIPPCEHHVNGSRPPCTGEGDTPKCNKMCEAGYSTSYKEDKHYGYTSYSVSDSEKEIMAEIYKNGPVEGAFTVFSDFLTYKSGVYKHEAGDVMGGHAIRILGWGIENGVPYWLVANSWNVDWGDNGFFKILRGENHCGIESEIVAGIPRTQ
T3 sequence (Q9R1T3 64-306): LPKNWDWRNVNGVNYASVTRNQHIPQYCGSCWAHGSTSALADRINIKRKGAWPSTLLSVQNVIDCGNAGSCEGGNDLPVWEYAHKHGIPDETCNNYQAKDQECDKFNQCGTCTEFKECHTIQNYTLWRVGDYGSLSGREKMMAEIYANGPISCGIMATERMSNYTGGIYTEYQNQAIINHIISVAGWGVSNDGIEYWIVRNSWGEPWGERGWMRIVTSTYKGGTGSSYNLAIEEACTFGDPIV
T1 sequence (P00786 96-333): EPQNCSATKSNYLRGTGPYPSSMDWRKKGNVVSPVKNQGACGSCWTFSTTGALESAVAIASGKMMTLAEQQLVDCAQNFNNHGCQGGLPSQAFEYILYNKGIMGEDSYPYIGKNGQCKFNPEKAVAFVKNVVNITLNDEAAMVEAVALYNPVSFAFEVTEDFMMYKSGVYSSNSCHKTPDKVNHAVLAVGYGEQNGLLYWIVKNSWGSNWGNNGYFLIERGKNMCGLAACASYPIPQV

**Q.** With `CCOC(=O)[C@H]1O[C@@H]1C(=O)N[C@@H](CC(C)C)C(=O)N[C@@H](Cc1ccc(O)cc1)C(=O)NCCc1ccc(O)c(N=Nc2ccc(C(=O)N[C@@H](CCCCNC(=O)CCCC[C@@H]3SC[C@@H]4NC(=O)N[C@@H]43)C(N)=O)cc2)c1` [SV1] as the molecule, how does the “cleavage into the two aniline fragments 3 and 4” value [1] read?
**A.** full cleavage

**Q.** What about the “Number of Identified peptides” value (Cathepsin H) of the same molecule?
**A.** 5

**Q.** And the Sequence coverage (Cathepsin H)?
**A.** 29%

**Q.** What about the “Number of Identified peptides” value (Cathepsin B) of the same molecule?
**A.** 2

**Q.** And the Sequence coverage (Cathepsin B)?
**A.** 8%

**Q.** And the “Number of Identified peptides” value (Cathepsin Z)?
**A.** 4

**Q.** And the Sequence coverage (Cathepsin Z)?
**A.** 32%

**Q.** And the “Number of Identified peptides” value (Cathepsin C)?
**A.** 3

**Q.** And the Sequence coverage (Cathepsin C)?
**A.** 16%

From patent US8314215B2, “Mild chemically cleavable linker system” (The Board of Trustees of the Leland Stanford Junior …, priority 2006, dated 2012)
